Values quoted from earlier work, collected in patent US12622967B2, “Molecules, formulations, and methods for nutritional support of athletes, patients, and others” (Today, Inc., priority 2022, dated 2026).

What was measured:
[1] = high intensity exercise
[2] = systemic infusion to target 4 mM blood [lactate]; human experimentation under way, personal communication

| SMILES | time to be oxidized to energy [1] | effect on cerebral LPR (lactate/pyruvate ratio) [2] |
| --- | --- | --- |
| CC(O)C(=O)O (centres unmarked) [lactate] | less than 5 min | – |
| CC(O)C(=O)[O-].[Na+] (centres unmarked) [sodium lactate] | – | decreases cerebral LPR |
